# Test results reported in patent publication US9657017B2, “Crystal form of (R)-praziquantel and preparation method and application thereof” (TONGLI BIOMEDICAL CO., LTD., priority 2013, dated 2017).
# Read-outs that look alike come from different tables or passages of the source.
# Columns and labels:
# schistosoma japonicum = assay: In vitro culture anti-schistosoma japonicum activity (worm activity inhibition); type: cell-based; settings: for IC50: spasm or paralysis of schistosoma japonicum considered as active, in vitro culture 37° C., read-out: IC50 ± L95 (median inhibitory concentration, 95% confidence interval)
# Protocol: Comparison of anti-schistosoma japonicum activity between the crystal forms of (R)-praziquantel and praziquantel in in vitro culture experiment, which was specifically as follow: […] An aliquot of the drug solution (5-50 μL) was transferred and diluted with culture medium (prepared by Tyrode's solution and calf serum at 9:1, pH 7.4, containing 100 IU/mL penicillin and 100 IU/mL streptomycin) to a desired concentration (0.0001-100 μg/mL). Japanese white rabbits and Kunming hybrid mice were infected with cercariae of schistosoma japonicum for 5-8 weeks. Under aseptic condition, mesenteric vein and liver were perfused with normal saline, and the recovered schistosomes were washed with Tyrode's solution twice and then transferred into culture medium and cultured at 37° C. for use. […] The worm activity and changes on body surface were observed under stereomicroscope and inverted microscope at room temperature. The active levels of worm were defined as below: • ++++ Worm twitching or rolling intensively; • +++ Worm wriggling or paroxysmally trembling frequently; • ++ Worm migrating freely with enterocinesia; • + Movement of worm weakened and enterocinesia disappeared; • ± No movement of worm was observed under stereomicroscope (×30), and slight movement of mouth and ventral suckers were observed under inverted microscope (×250); • − No movement of worm was observed under inverted microscope (×250); • wherein +++ and ++++ refer to worm excitement; ++ refers to normal worm activity; + and ± refers to inhibition of worm activity; worm was considered to death if the result was still negative after observing for 5 min.
# [1] = Solubility of crystal forms in water and simulated gastric-intestinal fluid; type: physicochemical; settings: 25° C.; for solubility at 18 h: thermodynamic from solid
# Protocol: About 2 mg of each compound was respectively placed in several glass vials, and pure water, simulated gastric fluid (SGF), simulated intestinal fluid under fasted status (FaSSIF), and simulated intestinal fluid under fed status (FeSSIF) were respectively added to prepare a final sample concentration of 2 mg/mL. The samples were sonicated to be dispersed evenly and then rotated 360 degree-wise to equilibrate for 18 hours at room temperature (25° C.). After the equilibration, the samples were visually inspected to check whether they were completely dissolved, and then filtrated through […] filter membrane. The resulted filtrate was diluted with suitable solvent for HPLC analysis.
# [2] = rat, in vivo, po, 75 mg/kg
# Text: Investigation on characteristic of the plasma concentrations of (R)-praziquantel crystal form in rats after oral administration, which was specifically as follow: […]
# clonorchis sinensis = assay: In vivo anti-parasitic activity in SD rats infected with clonorchis sinensis
# Protocol: Evaluation of in vivo anti-parasitic activity of (R)-praziquantel crystal form in SD rats infected with clonorchis sinensis, which was specifically as follow: Each of total 29 SD rats with 200˜300 g of body weight were given with 30 metacercariae of clonorchis sinensis via gavage intragastrically. On Day 35 post infection, fecal smear examination was conducted, and worm eggs of clonorchis sinensis were found in all of the smears which confirmed successful modeling. Subsequently, the rats were randomly divided into (R)-praziquantel group (n=14) and blank control group (n=15). […] Seven days after the end of the treatment, worms are recovered from the bile ducts under sterility condition. The averaged number of recovered worms, mean recovery rate of worms and cure rate after treatment were calculated, and the results are shown in Table 5.
# [3] = 100 mg/kg gavage twice a day for two days
Compound,effect on schistosoma japonicum worms (schistosoma japonicum; in vitro culture),IC50 (schistosoma japonicum),"solubility at 18 h ([1]; FaSSIF (simulated intestinal fluid, fasted), equilibrated 18 hours, read-out: Average solubility)","solubility at 18 h ([1]; FeSSIF (simulated intestinal fluid, fed), equilibrated 18 hours, read-out: Average solubility)","solubility at 18 h ([1]; SGF (simulated gastric fluid), equilibrated 18 hours, read-out: Average solubility)","solubility at 18 h ([1]; Water, equilibrated 18 hours, read-out: Average solubility)","solubility at 18 h ([1]; water, SGF, FaSSIF and FeSSIF, range over media, read-out: solubility in water and in simulated gastro-intestinal fluid)",area under plasma concentration-time curve [2],peak plasma concentration [2],time to reach peak plasma concentration [2],Cure rate (clonorchis sinensis; [3]),Mean recovery rate of worms (clonorchis sinensis; [3]),"No. of Cured animal (clonorchis sinensis; 100 mg/kg gavage twice a day for two days, 14 animals, worms recovered 7 days after treatment)","No. of Average of recovered worm, X ± SD (clonorchis sinensis; 100 mg/kg gavage twice a day for two days, worms from bile ducts)",worm body in rat feces (clonorchis sinensis; treatment group),"IC50 relative to that of praziquantel crystal form (schistosoma japonicum; in vitro culture, P<0.01)","Average solubility ([1]; FaSSIF (simulated intestinal fluid, fasted), equilibrated 18 hours)","Average solubility ([1]; FeSSIF (simulated intestinal fluid, fed), equilibrated 18 hours)","Average solubility ([1]; SGF (simulated gastric fluid), equilibrated 18 hours)","Average solubility ([1]; Water, equilibrated 18 hours)"
"O=C(C1CCCCC1)N1CC(=O)N2CCc3ccccc3C2C1 (racemic) [Praziquantel crystal form, praziquantel]",induce contraction and paralysis,42 ± 18 nM,193 µg/mL,313 µg/mL,192 µg/mL,199 µg/mL,190 to 310 µg/mL,–,–,–,–,–,–,–,–,–,–,–,–,–
"O=C(C1CCCCC1)N1CC(=O)N2CCc3ccccc3[C@@H]2C1 [(R)-praziquantel crystal form, (R)-praziquantel]",induce contraction and paralysis,8 ± 4 nM,–,–,–,–,–,3572 ± 1793 ng·h/mL,3132 ± 1440 ng/mL,15 min,100%,0%,14,0,no worm body found,⅕,302 µg/mL,433 µg/mL,303 µg/mL,305 µg/mL
